Measured values taken from patent US11141391B2, “Biomarkers for risk assessment, diagnosis and target microbiome and intestinal homeostasis for prevention and treatment of amyotrophic lateral sclerosis” (Rush University Medical Center, priority 2014, dated 2021).
“Also recorded” adds a separate entry of the source.

Legend:
[1] = test system: G93A amyotrophic lateral sclerosis model mice; experiment: Butyrate treated mice model: oral sodium butyrate in drinking water, body weight and survival; type: in vivo, mouse
Text: Nine G93A mice were divided into a […] (n=4) and a butyrate group (n=5). Butyrate mice started to drink 2% sodium butyrate in the drinking water bottle from age 63 days, without treatment mice drank regular water mice. Without treatment mice died on day 127, 133, 143, 155 separately.
Mice were divided into control and butyrate group. Butyrate group mice were given 2% sodium butyrate (Sigma, St. Louis, Mo.) water ad libitum from age 63 days. The untreated control group was maintained on tap water throughout the experiment. Without treatment mice died on day 127, 133, 143, 155 separately.

ALS patients = conditions: cited from earlier work

Structure (SMILES) | body weight loss ([1]; 2% sodium butyrate in drinking water ad libitum from age 63 days, n=5, vs untreated G93A mice n=4 (FIG. 4A)) | additional survival time of butyrate mice ([1]; 2% sodium butyrate in drinking water from age 63 days, relative to untreated mice that died on day 127-155) | survival ([1]; 2% sodium butyrate in drinking water from age 63 days, untreated mice died on day 127, 133, 143, 155 (FIG. 4B)) | patient life span (ALS patients; FDA approved treatment) | relief of symptoms (ALS patients)
CCCC(=O)[O-].[Na+] [sodium butyrate] | prevents body weight loss | survived at least one additional month or longer | extends survival time; also recorded: All the butyrate mice survived |  | 
Nc1nc2ccc(OC(F)(F)F)cc2s1 [Riluzole] |  |  |  | extends patient life span for only a few months | does not relieve symptoms
